Source: ChEMBL document CHEMBL3826975, “New indolizine-chalcones as potent inhibitors of human farnesyltransferase: Design, synthesis and biological evaluation” (Bioorg Med Chem Lett, 2016)

What was measured:
[1] = biological target: T1, Protein farnesyltransferase (Homo sapiens, UniProt P49354+P49356); assay: Inhibition of human recombinant farnesyltransferase using farnesylpyrophosphate and dansyl-GCVLS as substrate at 100 uM measured for 15 mins by fluorescence assay; type: protein-complex assay
[2] = biological target: T1, Protein farnesyltransferase; assay: Inhibition of human recombinant farnesyltransferase using farnesylpyrophosphate and dansyl-GCVLS as substrate measured for 15 mins by fluorescence assay; type: protein-complex assay

Row | Structure (SMILES) | inhibition [1] [%] | IC50 [2] [nM]
1 | CCOC(=O)c1cc(C(=O)/C=C/c2ccc(-c3ccccc3)cc2)n2ccc(OC)cc12 | 95 | 1320
2 | CCOC(=O)c1cc(C(=O)/C=C/c2ccc(Cl)cc2)n2ccc(OC)cc12 | 85 | 931
3 | CCOC(=O)c1cc(C(=O)/C=C/c2ccc3c(c2)Sc2ccccc2N3C)n2ccccc12 | 85 | 9
4 | CCOC(=O)c1cc(C(=O)/C=C/c2ccc3c(c2)Sc2ccccc2N3C)n2ccc(C)cc12 | 98 | 155
5 | CCOC(=O)c1cc(C(=O)/C=C/c2cc(OC)c(OC)c(OC)c2)n2ccc(OC)cc12 | 76 | 11600
6 | CCOC(=O)c1cc(C(=O)/C=C/c2ccc3c(c2)Sc2ccccc2N3C)n2ccc(OC)cc12 | 84 | 711
7 | CCOC(=O)c1cc(C(=O)/C=C/c2ccc3c(c2)Sc2ccccc2N3C)n2c(C)cccc12 | 91 | 23
8 | CCOC(=O)c1cc(C(=O)/C=C/c2cc(OC)c(OC)c(OC)c2)n2c(C)cccc12 | 7 | –
9 | CCOC(=O)c1cc(C(=O)/C=C/c2ccc(Br)cc2)n2ccc(OC)cc12 | 100 | 602
10 | COc1cc(/C=C/C(=O)c2ccc3c(C)cc(C)cn23)cc(OC)c1OC | 88 | 726
11 | CCOC(=O)c1cc(C(=O)/C=C/c2cc(OC)c(OC)c(OC)c2)n2ccccc12 | 94 | 19300
12 | CCOC(=O)c1cc(C(=O)/C=C/c2ccc(OC)cc2)n2ccc(OC)cc12 | 68 | –
13 | COc1cc(/C=C/C(=O)c2cc(C(=O)O)c3c(C)cc(C)cn23)cc(OC)c1OC | 88 | 15900
14 | COc1ccn2c(C(=O)/C=C/c3ccc(Cl)cc3)cc(C(=O)O)c2c1 | 88 | 2330
15 | CCOC(=O)c1cc(C(=O)/C=C/c2ccc(C#N)cc2)n2ccc(OC)cc12 | 95 | 8740
16 | CSCC[C@H](NC(=O)c1ccc(NC[C@@H](N)CS)cc1-c1ccccc1)C(=O)O | 100 | –
